Reference: PubChem BioAssay AID2060491 (Molecular Pharmacology Branch, DTP, NCI, 2025)
pIC50: −log10 of the molar value.

Test system: 857933-349-R-J2-PDC complex spheroids, viability
Assay: Anticancer human tumor 857933-349-R-J2-PDC patient-derived colon adenocarcinoma cell line growth inhibition [GQUAD]
Conditions: for pIC50: curve of first compound; for viability, T/C: stronger effect = lower value
Method in brief: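 Viability of tumor cells grown as complex spheroids with endothelial and stromal cells, exposed to drug combinations. Top concentration at or near clinical Cmax (else 10 microM), diluted in half-log increments.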

[1] = second compound 0.0316 µM, first compound 0.0316 µM
[2] = second compound 0.0316 µM, first compound 0.316 µM
[3] = second compound 0.1 µM, first compound 0.0316 µM
[4] = second compound 0.1 µM, first compound 0.316 µM
[5] = second compound 0.316 µM, first compound 0.0316 µM
[6] = second compound 0.316 µM, first compound 0.316 µM
[7] = second compound 1 µM, first compound 0.0316 µM
[8] = second compound 1 µM, first compound 0.316 µM
[9] = second compound 3.16 µM, first compound 0.0316 µM
[10] = second compound 3.16 µM, first compound 0.316 µM
[11] = second compound 10 µM, first compound 0.0316 µM
[12] = second compound 10 µM, first compound 0.316 µM
[13] = second compound 0.0316 µM, first compound 0.1 µM
[14] = second compound 0.0316 µM, first compound 1 µM
[15] = second compound 0.0316 µM, first compound 3.16 µM
[16] = second compound 0.0316 µM, first compound 10 µM
[17] = second compound 0.1 µM, first compound 0.1 µM
[18] = second compound 0.1 µM, first compound 1 µM
[19] = second compound 0.1 µM, first compound 3.16 µM
[20] = second compound 0.1 µM, first compound 10 µM
[21] = second compound 0.316 µM, first compound 0.1 µM
[22] = second compound 0.316 µM, first compound 1 µM
[23] = second compound 0.316 µM, first compound 3.16 µM
[24] = second compound 0.316 µM, first compound 10 µM
[25] = second compound 1 µM, first compound 0.1 µM
[26] = second compound 1 µM, first compound 1 µM
[27] = second compound 1 µM, first compound 3.16 µM
[28] = second compound 1 µM, first compound 10 µM
[29] = second compound 3.16 µM, first compound 0.1 µM
[30] = second compound 3.16 µM, first compound 1 µM
[31] = second compound 3.16 µM, first compound 3.16 µM
[32] = second compound 3.16 µM, first compound 10 µM
[33] = second compound 10 µM, first compound 0.1 µM
[34] = second compound 10 µM, first compound 1 µM
[35] = second compound 10 µM, first compound 3.16 µM
[36] = second compound 10 µM, first compound 10 µM
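Further: spheroids exposed to compounds for one week before readout.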
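Wherever viability, T/C is given: percent viability relative to vehicle DMSO wells taken as 100%.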

`CCc1c2c(nc3ccc(O)cc13)-c1cc3c(c(=O)n1C2)COC(=O)[C@]3(O)CC` + Cc1[nH]c2ccc(F)cc2c1-c1nc2c3cccnc3c3ncccc3c2[nH]1 gave a pIC50 (second compound 0.0316 µM) of 8.06, a pIC50 (second compound 0.1 µM) of 8.27 and a pIC50 (second compound 0.316 µM) of 8.01. It also gave a pIC50 (second compound 1 µM) of 8.07, a pIC50 (second compound 3.16 µM) of 8.02 and a pIC50 (second compound 10 µM) of 8.07. The viability, T/C (second compound 0.0316 µM, first compound 0.000999 µM) was 79.3%, the viability, T/C (second compound 0.0316 µM, first compound 0.00316 µM) was 63% and the viability, T/C (second compound 0.0316 µM, first compound 0.00999 µM) was 51.5%. For the same molecule, the viability, T/C [1] was 24.8%, the viability, T/C (second compound 0.0316 µM, first compound 0.0999 µM) was 14.7% and the viability, T/C [2] was 12.2%. The viability, T/C (second compound 0.1 µM, first compound 0.000999 µM) was 80.2%, the viability, T/C (second compound 0.1 µM, first compound 0.00316 µM) was 54.5% and the viability, T/C (second compound 0.1 µM, first compound 0.00999 µM) was 45.5%. For the same molecule, the viability, T/C [3] was 26.5%, the viability, T/C (second compound 0.1 µM, first compound 0.0999 µM) was 15.3% and the viability, T/C [4] was 11.1%. For the same molecule, the viability, T/C (second compound 0.316 µM, first compound 0.000999 µM) was 73.5%, the viability, T/C (second compound 0.316 µM, first compound 0.00316 µM) was 72.6% and the viability, T/C (second compound 0.316 µM, first compound 0.00999 µM) was 47.9%. For the same molecule, the viability, T/C [5] was 25%, the viability, T/C (second compound 0.316 µM, first compound 0.0999 µM) was 15.4% and the viability, T/C [6] was 11.4%. It also gave a viability, T/C (second compound 1 µM, first compound 0.000999 µM) of 74.8%, a viability, T/C (second compound 1 µM, first compound 0.00316 µM) of 63.2% and a viability, T/C (second compound 1 µM, first compound 0.00999 µM) of 49.8%. The viability, T/C [7] was 24.4%, the viability, T/C (second compound 1 µM, first compound 0.0999 µM) was 16.6% and the viability, T/C [8] was 14.7%. The viability, T/C (second compound 3.16 µM, first compound 0.000999 µM) was 80.5%, the viability, T/C (second compound 3.16 µM, first compound 0.00316 µM) was 60.1% and the viability, T/C (second compound 3.16 µM, first compound 0.00999 µM) was 55.9%. For the same molecule, the viability, T/C [9] was 27.4%, the viability, T/C (second compound 3.16 µM, first compound 0.0999 µM) was 15.7% and the viability, T/C [10] was 13%. For the same molecule, the viability, T/C (second compound 10 µM, first compound 0.000999 µM) was 80.7%, the viability, T/C (second compound 10 µM, first compound 0.00316 µM) was 54.5% and the viability, T/C (second compound 10 µM, first compound 0.00999 µM) was 59.2%. The viability, T/C [11] was 28.1%, the viability, T/C (second compound 10 µM, first compound 0.0999 µM) was 18.7% and the viability, T/C [12] was 14.6%.

`COc1cccc2c1C(=O)c1c(O)c3c(c(O)c1C2=O)CC(O)(C(=O)CO)CC3OC1CC(N)C(O)C(C)O1` (stereo not drawn) + Cc1[nH]c2ccc(F)cc2c1-c1nc2c3cccnc3c3ncccc3c2[nH]1 showed a pIC50 (second compound 0.0316 µM) of 6.35, a pIC50 (second compound 0.1 µM) of 6.14 and a pIC50 (second compound 0.316 µM) of 6.02. The pIC50 (second compound 1 µM) was 6.08, the pIC50 (second compound 3.16 µM) was 6.24 and the pIC50 (second compound 10 µM) was 6.30. It also gave a viability, T/C [1] of 90.5%, a viability, T/C [13] of 66% and a viability, T/C [2] of 59.2%. It also gave a viability, T/C [14] of 41.6%, a viability, T/C [15] of 5.07% and a viability, T/C [16] of 0.26%. It also gave a viability, T/C [3] of 81.5%, a viability, T/C [17] of 63.5% and a viability, T/C [4] of 59.7%. It also gave a viability, T/C [18] of 49.2%, a viability, T/C [19] of 7.76% and a viability, T/C [20] of 0.17%. The viability, T/C [5] was 74.2%, the viability, T/C [21] was 66.8% and the viability, T/C [6] was 56.4%. It also gave a viability, T/C [22] of 51%, a viability, T/C [23] of 5.84% and a viability, T/C [24] of 0.2%. The viability, T/C [7] was 79.9%, the viability, T/C [25] was 62.5% and the viability, T/C [8] was 61.9%. For the same molecule, the viability, T/C [26] was 48.6%, the viability, T/C [27] was 5.97% and the viability, T/C [28] was 0.21%. The viability, T/C [9] was 79.4%, the viability, T/C [29] was 65.7% and the viability, T/C [10] was 59.4%. For the same molecule, the viability, T/C [30] was 43.6%, the viability, T/C [31] was 6.19% and the viability, T/C [32] was 0.26%. The viability, T/C [11] was 93%, the viability, T/C [33] was 74.5% and the viability, T/C [12] was 58.5%. For the same molecule, the viability, T/C [34] was 43.7%, the viability, T/C [35] was 5.74% and the viability, T/C [36] was 0.29%.

In the case of `Cc1cccc(N(C)C(=O)C2C(O)CCN2c2nc(C)cc(C(F)(F)F)c2C#N)c1` (stereo not drawn) + Cc1[nH]c2ccc(F)cc2c1-c1nc2c3cccnc3c3ncccc3c2[nH]1, the pIC50 (second compound 0.0316 µM) was under 5.00, the pIC50 (second compound 0.1 µM) was under 5.00 and the pIC50 (second compound 0.316 µM) was under 5.00. The pIC50 (second compound 1 µM) was under 5.00, the pIC50 (second compound 3.16 µM) was under 5.00 and the pIC50 (second compound 10 µM) was under 5.00. It also gave a viability, T/C [1] of 101%, a viability, T/C [13] of 99.1% and a viability, T/C [2] of 91.6%. It also gave a viability, T/C [14] of 88.2%, a viability, T/C [15] of 98.3% and a viability, T/C [16] of 92%. The viability, T/C [3] was 95.2%, the viability, T/C [17] was 98.4% and the viability, T/C [4] was 98.8%. For the same molecule, the viability, T/C [18] was 97.9%, the viability, T/C [19] was 102% and the viability, T/C [20] was 96.7%. It also gave a viability, T/C [5] of 101%, a viability, T/C [21] of 104% and a viability, T/C [6] of 106%. For the same molecule, the viability, T/C [22] was 102%, the viability, T/C [23] was 101% and the viability, T/C [24] was 110%. For the same molecule, the viability, T/C [7] was 94.9%, the viability, T/C [25] was 101% and the viability, T/C [8] was 102%. The viability, T/C [26] was 103%, the viability, T/C [27] was 110% and the viability, T/C [28] was 94.7%. It also gave a viability, T/C [9] of 94.6%, a viability, T/C [29] of 97.4% and a viability, T/C [10] of 111%. The viability, T/C [30] was 100%, the viability, T/C [31] was 98.5% and the viability, T/C [32] was 99.7%. It also gave a viability, T/C [11] of 96.1%, a viability, T/C [33] of 101% and a viability, T/C [12] of 93%. For the same molecule, the viability, T/C [34] was 95%, the viability, T/C [35] was 97.5% and the viability, T/C [36] was 88.3%.

With `O=C(c1cc(Cc2n[nH]c(=O)c3ccccc23)ccc1F)N1CCN(C(=O)C2CC2)CC1` + Cc1[nH]c2ccc(F)cc2c1-c1nc2c3cccnc3c3ncccc3c2[nH]1 the pIC50 (second compound 0.0316 µM) was under 5.00, the pIC50 (second compound 0.1 µM) was under 5.00 and the pIC50 (second compound 0.316 µM) was under 5.00. For the same molecule, the pIC50 (second compound 1 µM) was under 5.00, the pIC50 (second compound 3.16 µM) was under 5.00 and the pIC50 (second compound 10 µM) was under 5.00. It also gave a viability, T/C [1] of 108%, a viability, T/C [13] of 95.7% and a viability, T/C [2] of 98.1%. For the same molecule, the viability, T/C [14] was 96.8%, the viability, T/C [15] was 118% and the viability, T/C [16] was 93.4%. The viability, T/C [3] was 113%, the viability, T/C [17] was 112% and the viability, T/C [4] was 92%. For the same molecule, the viability, T/C [18] was 100%, the viability, T/C [19] was 98.5% and the viability, T/C [20] was 101%. For the same molecule, the viability, T/C [5] was 102%, the viability, T/C [21] was 110% and the viability, T/C [6] was 106%. It also gave a viability, T/C [22] of 97.1%, a viability, T/C [23] of 103% and a viability, T/C [24] of 90.9%. For the same molecule, the viability, T/C [7] was 92.5%, the viability, T/C [25] was 99.7% and the viability, T/C [8] was 95.7%. The viability, T/C [26] was 97.6%, the viability, T/C [27] was 103% and the viability, T/C [28] was 96.5%. The viability, T/C [9] was 99.2%, the viability, T/C [29] was 105% and the viability, T/C [10] was 98.3%. The viability, T/C [30] was 98.6%, the viability, T/C [31] was 100% and the viability, T/C [32] was 108%. It also gave a viability, T/C [11] of 99.9%, a viability, T/C [33] of 100% and a viability, T/C [12] of 101%. The viability, T/C [34] was 99.8%, the viability, T/C [35] was 99.3% and the viability, T/C [36] was 98%.
